Each block holds one compound with its values, some of them ahead of it.
Tests used:
TRIM25 PRYSPRY [1] = biological target: T1, TRIM25 PRYSPRY (Homo sapiens, UniProt Q14258); assay: Intact protein LCMS covalent labelling of recombinant TRIM25 PRYSPRY; type: binding; settings: 4 °C, 24 h
T1 construct: His6-TEV (cleaved yes); made in house; host or cells: Sf9 insect cells (baculovirus)
Description: 1 resin (ThermoFisher Scientific, 89964), eluted in 100 mM HEPES pH 7, 500 mM NaCl,
2 300 mM Imidazole, 5% glycerol, 1 mM TCEP, and stored at -80 °C.
5 into a pET49 vector with a His6-HRV-3C (Human Rhinovirus) tag and expressed in
6 BL21 E.coli cells (Agilent Technologies; 230132), with induction at 18 °C overnight by
7 addition of isopropyl β-D-1-thiogalactopyranoside (0.5 mM). Cells were harvested by
8 centrifugation at 4000 rpm in a Beckman J6-M1 rotor for 30 min at 4 °C, the
9 supernatant was discarded and cell pellets were either immediately lysed, or stored at
10 -80°C. The protein was purified via His6-capture on HisPurTM Ni-NTA resin in buffer
11 50 mM HEPES pH 7.5, 300 mM NaCl, 0.5 mM TCEP, 20 mM imidazole, washed
12 extensively with both high salt buffer (50 mM HEPES pH 7.5, 1 M NaCl, 0.5 mM TCEP,
13 20 mM imidazole) and wash buffer (50 mM HEPES pH 7.5, 300 mM NaCl, 0.5 mM
14 TCEP, 20 mM imidazole) before elution in buffer 50 mM HEPES pH 7.5, 300 mM NaCl,
15 0.5 mM TCEP, 500 mM imidazole, and tag cleavage with HRV-3C protease. Cleaved
16 protein was further purified by ion exchange chromatography and size exclusion
17 chromatography into 20 mM HEPES pH 7.5, 150 mM NaCl, 0.5 mM TCEP, and stored
21 For the original chloroacetamide fragment screen, 0.25 μM TRIM25 PRYSPRY or
23 25 mM HEPES pH 7.5, 50 mM NaCl buffer. For intact protein liquid chromatography
24 mass spectrometry (LCMS) kinetic characterisation, 0.5 μM TRIM25 PRYSPRY was
25 used. For selectivity testing with recombinant ubiquitin system protein panel, 10 µM
27 7.5, 50 mM NaCl buffer. Samples were then diluted to 0.5 µM for TRIM25 PRYSPRY,
28 TRIM21 PRYSPRY, OTUD7B OTU, ZRANB1 OTU or 1 µM for TRIM2 NHL, UBCH5B,
29 UBC13K92A, UEV1A, OTUD4 OTU, before injection into the LCMS. For TRIM25
30 PRYSPRY mutants, and for labelling of heterobifunctional compounds, 10 µM protein
32 mM NaCl buffer, and samples were diluted to 1 µM protein before injection into the […]

TRIM25 PRYSPRY [2] = biological target: T1, TRIM25 PRYSPRY; assay: Kinetic characterisation of covalent labelling by intact protein LCMS (kinact/KI); type: binding; settings: TRIM25 PRYSPRY 0.5 μM, 4 °C
Description: 8 were characterised by kinetic reaction monitoring by intact protein LCMS. 0.5 µM
10 dilution series (final compound concentrations 100 µM (only for fragments 1 – 8),
12 and 1% DMSO-only control also used). Assays were performed in technical duplicates
Protein and compounds were incubated at 4 °C, in 25 mM HEPES
15 pH 7.5, 50 mM NaCl buffer, with each timepoint and replicate in a separate well.
18 measurement were saved with each reading and used for kinetic calculations.
19 protein masses were recorded, deconvoluted and percentage labelling values
20 extracted in the same way as described above. Percentage labelling values were
21 plotted against time in Prism 10 (GraphPad), and curves fitted separately for each
22 replicate to a one-phase association model with constraints Y0 = 0, and plateau = 100.
23 Observed rate constants (k obs, h-1, generated in Prism 10 as K values) were then
26 of two or three replicates to a straight line model with constraint Y-intercept = 0.
27 gradient of these plots (converted from µM-1h-1 to M-1s-1) gives the pseudo-first order
28 rate parameter, kinact/K I (M-1s-1), for each compound. kinact/KI values are reported as
29 mean ± SD of the slope based on a linear fit model, n = 2 or 3. For n = 2 data, errors
30 are reported as standard errors of fit, as calculated in Prism 10. For n = 3 data, errors […]

[3] = buffer; cited from earlier work
[4] = fragment screen: fragment 50 μM, TRIM25 PRYSPRY […]

T1 sequence (Q14258 435-630): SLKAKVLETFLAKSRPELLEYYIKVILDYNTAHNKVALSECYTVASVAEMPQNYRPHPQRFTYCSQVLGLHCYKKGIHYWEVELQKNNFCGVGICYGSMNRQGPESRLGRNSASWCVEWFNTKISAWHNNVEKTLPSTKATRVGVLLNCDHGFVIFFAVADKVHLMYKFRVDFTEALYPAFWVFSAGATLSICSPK

TRIM25 PRYSPRY labelling (%) (TRIM25 PRYSPRY [1]; purified compound 50 μM, TRIM25 PRYSPRY 10 μM): 51%
kinact/KI (TRIM25 PRYSPRY [2]; purified compounds, mean ± SD, n = 3): 0.26 ± 0.01 M⁻¹ s⁻¹
Structure (SMILES): N#Cc1cnccc1NC(=O)C1CCCN(C(=O)CCl)C1 (stereo not shown) [Compound 12]

TRIM25 PRYSPRY labelling (%) (TRIM25 PRYSPRY [1]; [4]): 55%
Structure (SMILES): O=C(CCl)N1CCCN(C(=O)c2ccc(Cl)cc2)CC1 [Fragment 1]

The next lines start with the compound.

Structure (SMILES): CCN1C(=O)C2CN(C(=O)CCl)CCN2C1=O (stereo not shown) [Fragment 2]
TRIM25 PRYSPRY labelling (%) (TRIM25 PRYSPRY [1]; [4]): 50%

Structure (SMILES): NC(=O)C1CCCCN1C(=O)CCl (stereo not shown) [Fragment 3]
TRIM25 PRYSPRY labelling (%) (TRIM25 PRYSPRY [1]; [4]): 39%
kinact/KI (TRIM25 PRYSPRY [2]; eight timepoints across 24 h, n = 2, mean ± SE of fit): 0.13 ± 0.01 M⁻¹ s⁻¹

Structure (SMILES): C=CC(=O)Nc1cc(Nc2nccc(-c3cn(C)c4ccccc34)n2)c(OC)cc1N(C)CCN(C)C [osimertinib]
GSH t1/2 [3]: 1.3 h
